Source: US11299487B2, “Compounds and compositions as modulators of TLR signaling” (Neuropore Therapies, Inc., priority 2019, dated 2022)

Tests used:
[1] = target: T1, human TLR2 (Homo sapiens, UniProt O60603); test: HEK-Blue hTLR2 antagonism assay (SEAP reporter) with agonist Pam2CSK4 (TLR2/6 agonist); format: cell-based; conditions: HEK-Blue hTLR2 cells, ~3×EC50 Pam2CSK4, 18 h, SEAP OD 655 nm, 8-point dilutions
T1 construct: host or cells: HEK-Blue hTLR2 (HEK-293)
Experimental: (§1) Synthetic diacylated lipoprotein (Pam2CSK4, TLR2/6 agonist) and synthetic triacylated lipoprotein (Pam3CSK4, TLR1/2 agonist) were obtained from InvivoGen and were dissolved in endotoxin-free water to a concentration 1 mg/mL, vortexed until complete solubilization, and stored in aliquots at −20° C. Prior to addition to cells, an aliquot of the dissolved ligand was vortexed shortly and then was diluted in medium to 25 ng/mL Pam2CSK4 or 1000 ng/mL Pam3CSK4.
(§2) Test compounds were solubilized fresh to 10-20 mM stocks in DMSO and sonicated for 5-10 minutes in a water bath sonicator. Serial dilutions were prepared in DMSO, and then diluted in medium. The final concentration of DMSO used in the assay was 1%.
(§3) HEK-Blue hTLR2 reporter cells (InvivoGen) are HEK-293 cells stably expressing both the human TLR2 gene and a secreted embryonic alkaline phosphatase (SEAP) reporter construct downstream of NFκB promotor sites. HEK-Blue hTLR2 reporters were cultured according to manufacturer's protocol using Dulbecco's Modified Eagle Medium (DMEM; Gibco) containing 1× GlutaMax (Gibco), 10% heat-inactivated Fetal Bovine Serum (Gibco), Pen-Strep (50 U/mL penicillin, 50 μg/mL streptomycin, Gibco), 100 μg/mL Normocin (InvivoGen), and the selective antibiotic, 1×HEK-Blue Selection (InvivoGen). Quanti-Blue reagent (InvivoGen) for detection and quantification of secreted alkaline phosphatase was dissolved in 100 mL of endotoxin-free water, warmed to 37° C. for 30 minutes and then filtered using a 0.2 μm membrane.
(§4) On day 1, 50 μL of each test compound dilution in duplicates or a vehicle control was added to each well of a 96-well plate followed by addition of 150 μL of HEK-Blue hTLR2 cell suspension (1×10^5 cells/well) and incubated at 37° C./5% CO2 for 2 h. Next, 50 μL of an approximate 3×EC50 concentration of each agonist (Pam2CSK4 or Pam3CSK4) was added to the wells containing test compounds or the vehicle control. The plates were then incubated at 37° C./5% CO2 for 18 h. For each assay run, non-treated HEK-Blue hTLR2 cells were treated with serial dilutions of agonists to determine EC50 values for the respective run.
(§5) On day 2, secreted alkaline phosphatase (SEAP) activity was detected in cell culture supernatants. In brief, 20 μL was collected from each well and transferred to a 96-well plate. Next, 200 μL of Quanti-Blue detection reagent was added to each well. Plates were incubated at room temperature for 15 min. and SEAP activity was assessed by spectrophotometer OD reading at 655 nm. […] IC50 values were calculated based on 8-point dilutions for each compound.

[2] = target: T1, human TLR2; test: HEK-Blue hTLR2 antagonism assay (SEAP reporter) with agonist Pam3CSK4 (TLR1/2 agonist); format: cell-based; conditions: HEK-Blue hTLR2 cells, ~3×EC50 Pam3CSK4, 18 h, SEAP OD 655 nm, 8-point dilutions
Experimental: as §1, §2, §3, §4, §5

T1 sequence (O60603 21-784): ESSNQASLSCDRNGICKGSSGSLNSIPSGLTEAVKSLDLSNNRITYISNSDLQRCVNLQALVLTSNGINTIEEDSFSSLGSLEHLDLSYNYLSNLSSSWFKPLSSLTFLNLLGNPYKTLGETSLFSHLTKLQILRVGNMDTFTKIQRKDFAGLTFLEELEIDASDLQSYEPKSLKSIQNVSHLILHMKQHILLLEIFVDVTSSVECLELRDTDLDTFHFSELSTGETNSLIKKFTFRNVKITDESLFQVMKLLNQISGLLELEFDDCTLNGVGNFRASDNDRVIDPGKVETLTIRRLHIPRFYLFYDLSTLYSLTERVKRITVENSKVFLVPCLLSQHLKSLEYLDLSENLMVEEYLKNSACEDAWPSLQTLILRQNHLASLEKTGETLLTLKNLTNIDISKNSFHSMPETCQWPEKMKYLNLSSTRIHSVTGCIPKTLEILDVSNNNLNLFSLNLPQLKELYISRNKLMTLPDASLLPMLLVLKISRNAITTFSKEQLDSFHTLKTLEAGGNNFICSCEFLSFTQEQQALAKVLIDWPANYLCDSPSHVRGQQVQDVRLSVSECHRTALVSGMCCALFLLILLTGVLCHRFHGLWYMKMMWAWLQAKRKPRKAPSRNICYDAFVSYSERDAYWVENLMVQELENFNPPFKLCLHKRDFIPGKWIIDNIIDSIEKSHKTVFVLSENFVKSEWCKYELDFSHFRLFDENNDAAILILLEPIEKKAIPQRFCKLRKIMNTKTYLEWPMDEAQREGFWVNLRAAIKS

Compound | IC50 ([1]; Table A) [µM] | IC50 ([2]; Table A) [µM] | IC50 ([1]; Table B) [µM] | IC50 ([2]; Table B) [µM]
Cc1nc(-c2ccc(N3CCCC3)cc2)sc1-c1cc(F)c(O)c(C=O)c1 [Compound A98, 3-fluoro-2-hydroxy-5-(4-methyl-2-(4-(pyrrolidin-1-yl)phenyl)thiazol-5-yl)benzaldehyde] | 1.4 | 1 | – | –
O=Cc1cc(-c2cnc(-c3ccccc3)s2)ncc1O [Compound A99, 5-hydroxy-2-(2-phenylthiazol-5-yl)isonicotinaldehyde] | 3.3 | 2.2 | – | –
CC1(C)CCN(c2ccc(-c3nsc(-c4cc(F)c(O)c(C=O)c4)n3)cc2)C1 [Compound A100, 5-(3-(4-(3,3-dimethylpyrrolidin-1-yl)phenyl)-1,2,4-thiadiazol-5-yl)-3-fluoro-2-hydroxybenzaldehyde] | 1.4 | 0.6 | – | –
O=Cc1cc(-c2cnc(-c3cccc(N4CCCC4)c3)s2)cc(F)c1O [Compound A101, 3-fluoro-2-hydroxy-5-(2-(3-(pyrrolidin-1-yl)phenyl)thiazol-5-yl)benzaldehyde] | 3.2 | 1 | – | –
O=Cc1cc(-c2cnc(-c3ccc(N4CCCC4)nc3)s2)cc(F)c1O [Compound A102, 3-fluoro-2-hydroxy-5-(2-(6-(pyrrolidin-1-yl)pyridin-3-yl)thiazol-5-yl)benzaldehyde] | 1.9 | 1 | – | –
Cc1nc(-c2cccc(N3CCCC3)c2)sc1-c1cc(F)c(O)c(C=O)c1 [Compound A103, 3-fluoro-2-hydroxy-5-(4-methyl-2-(3-(pyrrolidin-1-yl)phenyl)thiazol-5-yl)benzaldehyde] | 3.9 | 1.3 | – | –
Cc1nc(-c2ccc(N3CCCC3)nc2)sc1-c1cc(F)c(O)c(C=O)c1 [Compound A104, 3-fluoro-2-hydroxy-5-(4-methyl-2-(6-(pyrrolidin-1-yl)pyridin-3-yl)thiazol-5-yl)benzaldehyde] | 6.8 | 3.9 | – | –
CC1(C)CCN(c2ccc(-c3csc(-c4cc(F)c(O)c(C=O)c4)n3)cc2)C1 [Compound A105, 5-(4-(4-(3,3-dimethylpyrrolidin-1-yl)phenyl)thiazol-2-yl)-3-fluoro-2-hydroxybenzaldehyde] | 1.9 | 0.5 | – | –
O=Cc1cc(-c2cnc(-c3ccc(N4CCCC4)cc3)s2)ncc1O [Compound A112, 5-hydroxy-2-(2-(4-(pyrrolidin-1-yl)phenyl)thiazol-5-yl)isonicotinaldehyde] | 0.3 | 0.2 | – | –
O=Cc1cc(-c2cnc(-c3cnc(N4CCCC4)c(C(F)(F)F)c3)s2)cc(F)c1O [Compound A114, 3-fluoro-2-hydroxy-5-(2-(6-(pyrrolidin-1-yl)-5-(trifluoromethyl)pyridin-3-yl)thiazol-5-yl)benzaldehyde] | 0.7 | 0.4 | – | –
O=Cc1cc(-c2cnc(-c3ccc(N4CC5(CCC5)C4)cc3)s2)cc(F)c1O [Compound A116, 5-(2-(4-(2-azaspiro[3.3]heptan-2-yl)phenyl)thiazol-5-yl)-3-fluoro-2-hydroxybenzaldehyde] | 1.3 | 0.6 | – | –
O=Cc1cc(-c2csc(-c3ccc(N4CCCC4)nc3)n2)cc(F)c1O [Compound A123, 3-fluoro-2-hydroxy-5-(2-(6-(pyrrolidin-1-yl)pyridin-3-yl)thiazol-4-yl)benzaldehyde] | 1.7 | 1.5 | – | –
O=Cc1cc(-c2csc(-c3cccc(N4CCCC4)c3)n2)cc(F)c1O [Compound A124, 3-fluoro-2-hydroxy-5-(2-(3-(pyrrolidin-1-yl)phenyl)thiazol-4-yl)benzaldehyde] | 1.7 | 1 | – | –
O=Cc1cc(-c2nsc(-c3cccc(N4CCCC4)c3)n2)cc(F)c1O [Compound A125, 3-fluoro-2-hydroxy-5-(5-(3-(pyrrolidin-1-yl)phenyl)-1,2,4-thiadiazol-3-yl)benzaldehyde] | 3.3 | 2 | – | –
O=Cc1cc(-c2csc(-c3ccc(N4CCCCC4)nc3)n2)cc(F)c1O [Compound A126, 3-fluoro-2-hydroxy-5-(2-(6-(piperidin-1-yl)pyridin-3-yl)thiazol-4-yl)benzaldehyde] | 1.1 | 0.6 | – | –
O=Cc1cc(-c2cnc(-c3ccc(N4CCCCC4)nc3)s2)cc(F)c1O [Compound A127, 3-fluoro-2-hydroxy-5-(2-(6-(piperidin-1-yl)pyridin-3-yl)thiazol-5-yl)benzaldehyde] | 1.2 | 0.7 | – | –

Compound | IC50 ([1]; Table A) [µM] | IC50 ([2]; Table A) [µM] | IC50 ([1]; Table B) [µM] | IC50 ([2]; Table B) [µM]
O=Cc1cc(C#Cc2ccc(N3CCCCC3)cc2)cc(F)c1O [Compound B2, 3-fluoro-2-hydroxy-5-((4-(piperidin-1-yl)phenyl)ethynyl)benzaldehyde] | – | – | 0.5 | 0.3
O=Cc1c(O)cc(C#Cc2ccc(N3CCCCC3)cc2)cc1F [Compound B5, 2-fluoro-6-hydroxy-4-((4-(piperidin-1-yl)phenyl)ethynyl)benzaldehyde] | – | – | 1.9 | 1.1
O=Cc1c(O)cc(C#Cc2ccc(N3CCOCC3)cc2)cc1F [Compound B6, 2-fluoro-6-hydroxy-4-((4-morpholinophenyl)ethynyl)benzaldehyde] | – | – | 3.8 | 1.8
COc1cc(C#Cc2ccc(N3CCOCC3)cc2)cc(C=O)c1O [Compound B8, 2-hydroxy-3-methoxy-5-((4-morpholinophenyl)ethynyl)benzaldehyde] | – | – | 2.9 | 1.6
O=Cc1cc(NC(=O)c2ccccc2)cc(F)c1O [Compound B9, N-(3-fluoro-5-formyl-4-hydroxyphenyl)benzamide] | – | – | 8.1 | 6.8
O=Cc1cc(NC(=O)Nc2ccccc2)cc(F)c1O [Compound B10, 1-(3-fluoro-5-formyl-4-hydroxyphenyl)-3-phenylurea] | – | – | 11.6 | 7.2
O=Cc1cc(C(=O)Nc2ccc(C(F)(F)F)cc2)cc(F)c1O [Compound B13, 3-fluoro-5-formyl-4-hydroxy-N-(4-(trifluoromethyl)phenyl)benzamide] | – | – | 1.9 | 1.9
O=Cc1cc(C(=O)Nc2cnc(N3CCCC3)nc2)cc(F)c1O [Compound B59, 3-fluoro-5-formyl-4-hydroxy-N-(2-(pyrrolidin-1-yl)pyrimidin-5-yl)benzamide] | – | – | 32.7 | 19.8
O=Cc1cc(C(=O)Nc2ccc(N3CCCC3)nc2)cc(F)c1O [Compound B61, 3-fluoro-5-formyl-4-hydroxy-N-(6-(pyrrolidin-1-yl)pyridin-3-yl)benzamide] | – | – | 16.4 | 9.3
Cn1cc(-c2ccc(NC(=O)c3cc(F)c(O)c(C=O)c3)cc2)cn1 [Compound B63, 3-fluoro-5-formyl-4-hydroxy-N-(4-(1-methyl-1H-pyrazol-4-yl)phenyl)benzamide] | – | – | 30.1 | 11.3
O=Cc1cc(NC(=O)Nc2ccc(F)cc2)cc(F)c1O [Compound B64, 1-(3-fluoro-5-formyl-4-hydroxyphenyl)-3-(4-fluorophenyl)urea] | – | – | 10.9 | 8
O=Cc1cc(C(=O)Nc2ccc(N3CCCCC3)cc2)cc(F)c1O [Compound B66, 3-fluoro-5-formyl-4-hydroxy-N-(4-(piperidin-1-yl)phenyl)benzamide] | – | – | 1.8 | 1
O=Cc1cc(C(=O)Nc2ccc(N3CCN(C4CC4)CC3)cc2)cc(F)c1O [Compound B69, N-(4-(4-cyclopropylpiperazin-1-yl)phenyl)-3-fluoro-5-formyl-4-hydroxybenzamide] | – | – | 7.6 | 2.3
O=Cc1cc(C(=O)Nc2ccc(N3CCCN(C4CC4)CC3)cc2)cc(F)c1O [Compound B70, N-(4-(4-cyclopropyl-1,4-diazepan-1-yl)phenyl)-3-fluoro-5-formyl-4-hydroxybenzamide] | – | – | 11.5 | 6.5
O=Cc1cc(C(=O)Nc2cccc(N3CCCCC3)c2)cc(F)c1O [Compound B72, 3-fluoro-5-formyl-4-hydroxy-N-(3-(piperidin-1-yl)phenyl)benzamide] | – | – | 4.6 | 2.4
